The record followed here is US12227520B2 (priority 2019, dated 2025).

Like-named read-outs stand apart in the source and are kept apart here.

The nature of series [1]: Cytotoxicity assay in MT-4 cells. In kind it is cell-based, human. As to conditions: human, uninfected MT-4 cells, 5 days incubation; read-out: CC50. In a few lines:
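For cytotoxicity, uninfected MT-4 cells were incubated with compounds 5 days at 37 °C, with 10 μM puromycin marking base cytotoxicity. Parallel plates used HIV-1 IIIB-infected (1:250 stock dilution) or mock cells with 5 μM AZT and no-drug controls. Read-out: CellTiter-Glo chemiluminescence.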

The subject of the next series is HIV-1 (IIIB). The experiment in a line: Antiviral assay in MT-4 cells (HIV MT-4 antiviral assay). In kind it is cell-based. The note with it: Human immunodeficiency virus 1, IIIB, MT4, 120 h, HIV-1 (IIIB) in MT-4 cells, 5 days incubation. In short, it runs like this: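 Read-out is CellTiter-Glo chemiluminescence after 5-day culture at 37° C, giving protection of MT-4 cells from HIV-1 IIIB cytopathicity. Compounds tested in 1:3 dilution series in complete RPMI; controls were no drug, mock infection and 5 μM AZT.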

The test system of a further series is pLai RLuc reporter virus. The experiment in a line: microbe, parasite or virus in culture. In kind it is cell-based, HIV. The note with it: Human immunodeficiency virus 1, 72 h. In short, it runs like this: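 Read-out is Renilla luciferase after 72 h at 37 °C in MT-4 cells infected 2 h beforehand with pLai RLuc reporter virus; compounds diluted 1:3.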
[2] abbreviates: read-out: Antiviral Serum Shift RLuc 50% HS, HS/CCM (RPMI media, 10% FBS, 50% HS, 1% P/S), 72-h incubation.
Setting [3] is: read-out: Antiviral Serum Shift RLuc CCM, CCM (RPMI media, 10% FBS, 1% P/S), 72-h incubation.

As for `O=C(NCc1c(F)cc(F)cc1F)c1cn2c(c(O)c1=O)C(=O)N1CCC[C@@H](F)[C@@H]2C1` [Example 15-1, (6R,7S)-6-fluoro-12-hydroxy-1,11-dioxo-N-(2,4,6-trifluorobenzyl)-1,4,5,6,7,11-hexahydro-3H-2,7-methanopyrido[1,2-a][1,4]diazonine-10-carboxamide], the CC50 (commonly the concentration giving 50% cytotoxicity) at 5 days in series [1] stood at 18300 nM. Further, the EC50 in the series on HIV-1 (IIIB) (read-out: EC50) is 1.7 nM; with pLai RLuc reporter virus (setting [2]), 11.6 nM; in the series with pLai RLuc reporter virus (setting [3]) it was 0.32 nM.

As to `Cn1cc2c(n1)CC[C@H]1CN2C(=O)c2c(O)c(=O)c(C(=O)NCc3c(F)cc(F)cc3F)cn21` [Example 85-1, (11S)-6-hydroxy-2-methyl-5,7-dioxo-N-(2,4,6-trifluorobenzyl)-2,5,7,11,12,13-hexahydro-4,11-methanopyrazolo[4,3-e]pyrido[1,2-a][1,4]diazonine-8-carboxamide], the half-maximal cytotoxic concentration (CC50) at 5 days in series [1] is greater than 49900 nM. For the same molecule, the figures for the EC50 in the series with HIV-1 (IIIB) (read-out: EC50), in the series with pLai RLuc reporter virus (setting [2]) and in the series with pLai RLuc reporter virus (setting [3]) were 5.64 nM, 1.57 nM and 1.06 nM, respectively.

Turning to `O=C(NCc1ccc(F)cc1F)c1cn2c(c(O)c1=O)C(=O)N1Cc3ccccc3C[C@H]2C1` [Example 71, (6S)—N-(2,4-difluorobenzyl)-1-hydroxy-2,14-dioxo-2,7,12,14-tetrahydro-6H-6,13-methanobenzo[f]pyrido[1,2-a][1,4]diazonine-3-carboxamide], the cytotoxic concentration (CC50) at 5 days in series [1] came out at 15000 nM. Moreover, the EC50 was determined as 2.14 nM in the series with HIV-1 (IIIB) (read-out: EC50), 1.66 nM in the series on pLai RLuc reporter virus (setting [2]) and 0.302 nM with pLai RLuc reporter virus (setting [3]).

As to `O=C(NCc1c(F)cc(F)cc1F)c1cn2c(c(O)c1=O)C(=O)N1CCCC(F)(F)[C@H]2C1` (single isomer, unassigned) [Example 10-2], in series [1], the CC50 at 5 days amounted to 16100 nM. Besides, the EC50 came to 1 nM in the series with HIV-1 (IIIB) (read-out: EC50), 5.04 nM in the series with pLai RLuc reporter virus (setting [2]) and 0.27 nM with pLai RLuc reporter virus (setting [3]).

As to `C[C@@H]1C=C[C@H](C)N2C[C@H]1n1cc(C(=O)NCc3c(F)cc(F)cc3F)c(=O)c(O)c1C2=O` [Example 176, (3S,6R,7S)-12-hydroxy-3,6-dimethyl-1,11-dioxo-N-(2,4,6-trifluorobenzyl)-1,6,7,11-tetrahydro-3H-2,7-methanopyrido[1,2-a][1,4]diazonine-10-carboxamide], in series [1], the CC50 at 5 days is 7770 nM. Further, the EC50 in the series on HIV-1 (IIIB) (read-out: EC50) was 0.829 nM; in the series on pLai RLuc reporter virus (setting [2]), 16.7 nM; with pLai RLuc reporter virus (setting [3]), 0.263 nM.

With `O=C(NCc1ccc(F)c(Cl)c1F)c1cn2c(c(O)c1=O)C(=O)N1CCCC[C@H]2C1` [Example 51, (7S)—N-(3-chloro-2,4-difluorobenzyl)-12-hydroxy-1,11-dioxo-1,4,5,6,7,11-hexahydro-3H-2,7-methanopyrido[1,2-a][1,4]diazonine-10-carboxamide], in series [1], the 50% cytotoxic concentration (CC50) at 5 days stood at 4390 nM. For the same molecule, the EC50 with HIV-1 (IIIB) (read-out: EC50) came out at 1.17 nM; in the series with pLai RLuc reporter virus (setting [2]) it was 2.14 nM; in the series on pLai RLuc reporter virus (setting [3]), 0.215 nM.

Regarding `C[C@]1(F)CCCN2C[C@H]1n1cc(C(=O)NCc3c(F)cc(F)cc3F)c(=O)c(O)c1C2=O` [Example 179, (6S,7R)-6-fluoro-12-hydroxy-6-methyl-1,11-dioxo-N-(2,4,6-trifluorobenzyl)-1,4,5,6,7,11-hexahydro-3H-2,7-methanopyrido[1,2-a][1,4]diazonine-10-carboxamide], in series [1], the CC50 at 5 days is 13100 nM. The EC50 with HIV-1 (IIIB) (read-out: EC50) stood at 1.49 nM; in the series on pLai RLuc reporter virus (setting [2]), 0.803 nM; in the series on pLai RLuc reporter virus (setting [3]), 0.335 nM.

Consider `C[C@]1(F)CCN2C[C@H](C1)n1cc(C(=O)NCc3c(F)cc(F)cc3F)c(=O)c(O)c1C2=O` [Example 115-1, (5S,7S)-5-fluoro-12-hydroxy-5-methyl-1,11-dioxo-N-(2,4,6-trifluorobenzyl)-1,4,5,6,7,11-hexahydro-3H-2,7-methanopyrido[1,2-a][1,4]diazonine-10-carboxamide], for which the half-maximal cytotoxic concentration (CC50) at 5 days in series [1] amounted to 12200 nM. Further, the EC50 stood at 1.48 nM in the series on HIV-1 (IIIB) (read-out: EC50), 0.713 nM in the series on pLai RLuc reporter virus (setting [2]) and 0.271 nM in the series with pLai RLuc reporter virus (setting [3]).

Consider `O=C(NCc1c(F)cc(F)cc1F)c1cn2c(c(O)c1=O)C(=O)N1C[C@H]2CCCc2ccccc21` [Example 80-2, (6R)-1-hydroxy-2,15-dioxo-N-(2,4,6-trifluorobenzyl)-2,6,7,8,9,15-hexahydro-6,14-methanobenzo[e]pyrido[1,2-a][1,4]diazecine-3-carboxamide], for which the CC50 at 5 days in series [1] is 13400 nM. The EC50 was determined as 5.35 nM in the series with HIV-1 (IIIB) (read-out: EC50), 7.54 nM in the series on pLai RLuc reporter virus (setting [2]) and 0.618 nM in the series with pLai RLuc reporter virus (setting [3]).

As to `O=C(NCc1ccc(F)c(Cl)c1F)c1cn2c(c(O)c1=O)C(=O)N1CCCC[C@@H]2C1` [Example 35, (7R)—N-(3-chloro-2,4-difluorobenzyl)-12-hydroxy-1,11-dioxo-1,4,5,6,7,11-hexahydro-3H-2,7-methanopyrido[1,2-a][1,4]diazonine-10-carboxamide], in series [1], the half-maximal cytotoxic concentration (CC50) at 5 days came to 4960 nM. Further, the EC50 with HIV-1 (IIIB) (read-out: EC50) was found to be 1.5 nM; in the series with pLai RLuc reporter virus (setting [2]), 44.4 nM; with pLai RLuc reporter virus (setting [3]), 0.423 nM.

As for `O=C(NCc1ccc(F)c(Cl)c1F)c1cn2c(c(O)c1=O)C(=O)N1CCCC(F)(F)[C@H]2C1` (single isomer, unassigned) [Example 117-1], the CC50 at 5 days in series [1] was found to be 13300 nM. Also, the figures for the EC50 in the series on HIV-1 (IIIB) (read-out: EC50), in the series with pLai RLuc reporter virus (setting [2]) and in the series on pLai RLuc reporter virus (setting [3]) were 1.93 nM, 7.17 nM and 0.33 nM, respectively.

With `O=C(NCc1c(F)cc(F)cc1F)c1cn2c(c(O)c1=O)C(=O)N1CCCC[C@H]2C1` [Example 26-2, (7S)-12-hydroxy-1,11-dioxo-N-(2,4,6-trifluorobenzyl)-1,4,5,6,7,11-hexahydro-3H-2,7-methanopyrido[1,2-a][1,4]diazonine-10-carboxamide], in series [1], the CC50 at 5 days was found to be 14400 nM. Besides, the figures for the EC50 in the series with HIV-1 (IIIB) (read-out: EC50), in the series with pLai RLuc reporter virus (setting [2]) and with pLai RLuc reporter virus (setting [3]) were 1.31 nM, 2.29 nM and 0.353 nM, respectively.

Regarding `O=C(NCc1c(F)cc(F)cc1F)c1cn2c(c(O)c1=O)C(=O)N1C[C@@H](O)CC[C@H]2C1` (single isomer, unassigned) [Example 79-1], the cytotoxic concentration (CC50) at 5 days in series [1] was greater than 50000 nM. The EC50 in the series on HIV-1 (IIIB) (read-out: EC50) was 58.5 nM; in the series with pLai RLuc reporter virus (setting [2]) it was 23.5 nM; in the series with pLai RLuc reporter virus (setting [3]), 19.5 nM.

For `O=C(NCc1ccc(F)cc1F)c1cn2c(c(O)c1=O)C(=O)N1C[C@@H]2CC=C[C@@H]1CF` [Example 188], in series [1], the CC50 at 5 days was 12200 nM. The results for the EC50 with HIV-1 (IIIB), in the series with pLai RLuc reporter virus (setting [2]) and with pLai RLuc reporter virus (setting [3]) were 1.19 nM, 3.48 nM and 0.421 nM, respectively.

For the molecule `C[C@]1(F)CCCN2C[C@H]1n1cc(C(=O)NCc3ccc(F)cc3F)c(=O)c(O)c1C2=O` [Example 60-1, (6S,7R)—N-(2,4-difluorobenzyl)-6-fluoro-12-hydroxy-6-methyl-1,11-dioxo-1,4,5,6,7,11-hexahydro-3H-2,7-methanopyrido[1,2-a][1,4]diazonine-10-carboxamide], the CC50 at 5 days in series [1] came to 13900 nM. In addition, the EC50 in the series with HIV-1 (IIIB) (read-out: EC50) came to 1.77 nM; with pLai RLuc reporter virus (setting [2]) it was 1.6 nM; in the series with pLai RLuc reporter virus (setting [3]), 0.457 nM.

For the molecule `O=C(NCc1c(F)cc(F)cc1F)c1cn2c(c(O)c1=O)C(=O)N1CCC=C(F)[C@@H]2C1` (single isomer, unassigned) [Example 75-1], the CC50 at 5 days in series [1] worked out at 15100 nM. Also, the results for the EC50 in the series with HIV-1 (IIIB) (read-out: EC50), in the series with pLai RLuc reporter virus (setting [2]) and in the series with pLai RLuc reporter virus (setting [3]) were 3.76 nM, 298 nM and 0.595 nM, respectively.

Consider `C[C@]12CCCCN(C1)C(=O)c1c(O)c(=O)c(C(=O)NCc3ccc(F)cc3F)cn12` [Example 173, (7S)—N-(2,4-difluorobenzyl)-12-hydroxy-7-methyl-1,11-dioxo-1,4,5,6,7,11-hexahydro-3H-2,7-methanopyrido[1,2-a][1,4]diazonine-10-carboxamide], for which, in series [1], the CC50 at 5 days came out at 12500 nM. Besides, the EC50 was 1.24 nM in the series on HIV-1 (IIIB) (read-out: EC50), 13.9 nM in the series with pLai RLuc reporter virus (setting [2]) and 0.363 nM in the series on pLai RLuc reporter virus (setting [3]).

As for `C[C@H]1CC[C@H](C)N2C[C@H]1n1cc(C(=O)NCc3ccc(F)cc3F)c(=O)c(O)c1C2=O` [Example 187, (3S,6S,7S)—N-(2,4-difluorobenzyl)-12-hydroxy-3,6-dimethyl-1,11-dioxo-1,4,5,6,7,11-hexahydro-3H-2,7-methanopyrido[1,2-a][1,4]diazonine-10-carboxamide], the CC50 at 5 days in series [1] was found to be 10800 nM. In addition, the figures for the EC50 in the series with HIV-1 (IIIB) (read-out: EC50), with pLai RLuc reporter virus (setting [2]) and with pLai RLuc reporter virus (setting [3]) were 1.18 nM, 44 nM and 0.383 nM, respectively.

With `O=C(NCc1ccc(F)cc1F)c1cn2c(c(O)c1=O)C(=O)N1CC[C@H](F)C[C@H]2C1` [Example 56-1, (5S, 7S)—N-(2,4-difluorobenzyl)-5-fluoro-12-hydroxy-1,11-dioxo-1,4,5,6,7,11-hexahydro-3H-2,7-methanopyrido[1,2-a][1,4]diazonine-10-carboxamide], in series [1], the CC50 at 5 days is greater than 39400 nM. The figures for the EC50 in the series on HIV-1 (IIIB) (read-out: EC50), in the series with pLai RLuc reporter virus (setting [2]) and in the series on pLai RLuc reporter virus (setting [3]) were 3.99 nM, 1.91 nM and 0.967 nM, respectively.

`O=C(NCc1c(F)cc(F)cc1F)c1cn2c(c(O)c1=O)C(=O)N1CCC(F)=C[C@H]2C1` [Example 121, (7S)-5-fluoro-12-hydroxy-1,11-dioxo-N-(2,4,6-trifluorobenzyl)-1,4,7,11-tetrahydro-3H-2,7-methanopyrido[1,2-a][1,4]diazonine-10-carboxamide]: the half-maximal cytotoxic concentration (CC50) at 5 days in series [1] amounted to 24800 nM. The figures for the EC50 with HIV-1 (IIIB) (read-out: EC50), in the series with pLai RLuc reporter virus (setting [2]) and in the series on pLai RLuc reporter virus (setting [3]) were 1.76 nM, 0.505 nM and 0.235 nM, respectively.
